Results on 16 compounds are retold here after US5338858A, “Triazolyl, tetrazolyl and azido-substituted fatty acid analog enzyme substrates” (Washington University, priority 1992, dated 1994).

For test [1], the target named is T1, yeast N-myristoyltransferase (Saccharomyces cerevisiae, UniProt P14743).
T1 sequence (P14743 1-455): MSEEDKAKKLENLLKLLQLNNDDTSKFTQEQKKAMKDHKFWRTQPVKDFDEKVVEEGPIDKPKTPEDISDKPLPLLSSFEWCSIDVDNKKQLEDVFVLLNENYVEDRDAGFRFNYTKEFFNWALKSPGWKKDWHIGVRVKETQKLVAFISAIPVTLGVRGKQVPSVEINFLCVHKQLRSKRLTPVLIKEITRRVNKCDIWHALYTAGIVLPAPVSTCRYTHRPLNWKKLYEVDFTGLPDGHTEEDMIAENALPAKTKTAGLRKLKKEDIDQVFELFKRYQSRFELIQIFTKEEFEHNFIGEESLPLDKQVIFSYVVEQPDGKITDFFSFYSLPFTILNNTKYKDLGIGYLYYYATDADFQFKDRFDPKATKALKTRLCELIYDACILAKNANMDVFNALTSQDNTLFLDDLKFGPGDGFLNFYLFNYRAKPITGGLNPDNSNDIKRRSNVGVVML
Description: in vitro yeast N-myristoyltransferase (NMT) assay, substrate activity of fatty acyl CoA derivatives. The note with it: peptide GSAASARR-NH2, 30° C., 10 minutes; normalized to myristoyl peptide of parallel assay. The class given is biochemical. As to the method:
A. Representative compounds prepared in the foregoing illustrative specific examples were analyzed in a conventional in vitro yeast N-myristoyltransferase (NMT) assay as published by Heuckeroth et al., Proc. Nat'l Acad. Sci. USA 85, 8795-8799 (1988). In this assay, the test compounds were first converted to their respective fatty acyl CoA derivatives and then tested as substrates for the yeast NMT.
The assay conditions [essentially the same as those reported by Towler and Glaser, Proc. Natl. Acad. Sci. USA 83, 2812-2816 (1986)] were as follows:
1. Ligase reaction: 3.3 μmoles fatty acid, 5 mM ATP and 1 mM CoA were incubated with 15-150 milliunits of CoA ligase (1 unit/ml in 50 mM HEPES, pH 7.3) in a buffer composed of 10 mM TRIS-HCl, pH 7.4, 1 mM dithiothreitol, 5 mM MgCl2 and 0.1 mM EGTA, in a total volume of 50 μl for 25 minutes at 30° C.
2. NMT assay: 50 μl of the CoA ligase mixture was added to a 50 μl solution of 90 μM peptide (GSAASARR-NH2) in a buffer composed of 10 mM TRIS-HCl, pH 7.4, 1 mM dithiothreitol, 0.01 mM EGTA and aprotinin (10 μg/ml). 0.4 Unit of yeast N-myristoyltransferase was then added and the reaction mixture was incubated at 30° C. for 10 minutes. The peptide was radiolabeled with tritiated alanine in position 3. The reaction was quenched with 120 μl of TCA-MeOH and 75 μl was injected on a reverse phase C18 HPLC column and eluted with a linear gradient of 0-100% acetonitrile over 100 minutes (both water and acetonitrile containing 0.1% trifluoroacetic acid). Radioactivity was assessed with an on line radiomatic detector corrected for quenching.
The amount of radioactivity was determined for each azido-substituted fatty acyl peptide product and then was normalized to the amount of myristoyl peptide produced in an assay run in parallel.

The test system of test [2] is HIV-1. Description: HIV inhibition assay of acutely infected CEM cells (MTT tetrazolium colorimetric, reduction of CPE). Particulars: for inhibition at 1 µg/mL / inhibition at 10 µg/mL / IC50: Human immunodeficiency virus 1, CCRF-CEM, 168 h; for inhibition at 1 µg/mL / inhibition at 10 µg/mL: read-out: Percent Reduction of CPE; for IC50: read-out: ID50 (inhibitory dose that inhibits 50% of the cytopathic effect). The class given is cell-based. As to the method:
B. Representative compounds prepared in the foregoing illustrative specific examples were also tested in vitro for the assessment of anti-viral (HIV) activity as follows:
The HIV inhibition assay method of acutely infected cells is an automated tetrazolium based colorimetric assay adatped from that reported by Pauwles et al., J. Virol. Methods, 20, 309-321 (1988). Assays were performed in 96-well tissue culture plates. CEM cells were grown in RPMI-1640 medium (Gibco) supplemented with 10% fetal calf serum and were then treated with polybrene (2 μg/ml). An 80 μl volume of medium containing 1×10^4 cells was dispensed into each well of the tissue culture plate. To each well was added a 100 μl volume of test compound dissolved in tissue culture medium (or medium without test compound as a control) to achieve the desired final concentration and the cells were incubated at 37° C. for 1 hour. A frozen culture of HIV-1 was diluted in culture medium to a concentration of 5×10^4 TCID50 per ml (TCID50 =the dose of virus that infects 50% of cells in tissue culture), and a 20 μl volume of the virus sample (containing 1000 TCID50 of virus) was added to wells containing test compound and to wells containing only medium (infected control cells). […] Several wells received culture medium without virus (uninfected control cells). Likewise, the intrinsic toxicity of the test compound was determined by adding medium without virus to several wells containing test compound. In summary, the tissue culture plates contained the following tests (in triplicate):
In tests 2 and 4 the final concentrations of test compounds were 1, 10, 100 and 500 μg/ml. Azidothymidine (AZT) was tested as a positive drug control, and dodecanoic acid was tested as a negative fatty acid control. […] Under these conditions, DMSO had no significant effect on results as determined in controls.
Following the addition of virus, cells were incubated at 37° C. in a humidified, 5% CO2 atmosphere for 7 days. Additional aliquots of test compounds were added on days 2 and 5. On day 7 post-infection, the cells in each well were resuspended and a 100 μl sample of each cell suspension was removed for assay. A 20 μl volume of a 5 mg/ml solution of 3-(4,5-dimethylthiazol-2-yl)-2,5-diphenyltetrazolium bromide (MTT) was added to each 100 μl cell suspension, and the cells were incubated for 4 hours at 37° C. in a 5% CO2 environment. […] To each sample was added 100 μl of 10% sodium dodecylsulfate in 0.01 N HCl to lyse the cells and samples were incubated overnight. The absorbance of each sample was determined.at 590 nm using a Molecular Devices microplate reader. The % reduction of the virus induced cytopathic effect (CPE) by the test compounds was determined using the formula shown at the bottom of Table 2, hereinafter.
The results of the antiviral testing are set forth in Table 2, as percent reduction in cytopathic effect (CPE). The inhibitory dose that inhibits 50% of the cytopathic effect is shown as ID50 (μg/ml).
^a The percent reduction of viral CPE was calculated by the formula: […]
Background: Cytopathic effects are the visible damage that an infection or toxin causes in cultured cells.

Test [3] has as its system HIV-1. Described as above. The class given is cell-based. The note with it: Human immunodeficiency virus 1, CCRF-CEM, 168 h, read-out: Percent Reduction of CPE.
The mark [4] stands for this setting: concentration 1 (μg/ml), CEM cells, HIV-1, 7 days.
The mark [5] stands for this setting: concentration 10 (μg/ml), CEM cells, HIV-1, 7 days.

In brackets after ≈: the same amount, converted by molar mass. Read-outs that look alike come from different tables or passages of the source.

For the compound `[N-]=[N+]=NCCCCCCOCCCCC(=O)O` [Compound 42, 5-(1-Azido-hexane-6-oxa)pentanoic acid], the “Activity (% of Myristate)” value in test [1] is 622 % of Myristate. Besides, in the test on HIV-1 [2] (CEM cells, HIV-1, 7 days), the “ID50 (inhibitory dose that inhibits 50% of the cytopathic effect)” value is recorded as “Inactive”. Moreover, the inhibition at 1 µg/mL in the test with HIV-1 [2] (setting [4]) worked out at 4%. In addition, the inhibition at 10 µg/mL in the test on HIV-1 [2] (setting [5]) was found to be 20%.

For the compound `COCCCCCCCCCCCC(=O)O` [13-Oxamyristate, reference compound], the IC50 in the test on HIV-1 [2] (CEM cells, HIV-1, 7 days) is 0.3 µg/mL (≈ 1.3 µM). For the same compound, the inhibition at 1 µg/mL in the test with HIV-1 [2] (setting [4]) worked out at 66.4%. Further, the inhibition at 10 µg/mL in the test on HIV-1 [2] (setting [5]) amounted to 43.5%.

Take `[N-]=[N+]=NCCCCCCCCCOCC(=O)O` [Compound 43, 2-(1-Azido-nonane-9-oxa)acetic acid]: in test [1], the “Activity (% of Myristate)” value was 11 % of Myristate. Moreover, the “ID50 (inhibitory dose that inhibits 50% of the cytopathic effect)” value in the test with HIV-1 [2] (CEM cells, HIV-1, 7 days) was “Inactive”.

For `O=C(O)CCCCCCCCCCCn1cncn1` [Compound 48], the “Activity (% of Myristate)” value in test [1] is 23 % of Myristate. In addition, the IC50 in the test on HIV-1 [2] (CEM cells, HIV-1, 7 days) is 4.2 µg/mL (≈ 15.7 µM). Besides, the inhibition at 1 µg/mL in the test with HIV-1 [2] (setting [4]) amounted to 24%. Also, the inhibition at 10 µg/mL in the test on HIV-1 [2] (setting [5]) was 66%.

For the compound `[N-]=[N+]=NCCCCCCCCCCCC(=O)O` [Compound 1, 12-Azidododecanoic acid], in test [1], the “Activity (% of Myristate)” value was 142 % of Myristate. Besides, the IC50 in the test with HIV-1 [2] (CEM cells, HIV-1, 7 days) is 0.3 µg/mL (≈ 1.24 µM). The inhibition at 1 µg/mL with HIV-1 [2] (setting [4]) was 81.7%. The inhibition at 10 µg/mL in the test with HIV-1 [2] (setting [5]) was 38.2%.

As to `O=C(O)CCCCCCCCCCCn1nccn1` [Compound 50, 12-(N-2-[1,2,3]-Triazolyl)dodecanoic acid], in test [1], the “Activity (% of Myristate)” value is 99 % of Myristate. For the same compound, the inhibition at 1 µg/mL with HIV-1 [2] (setting [4]) amounted to 19.5%. The inhibition at 10 µg/mL with HIV-1 [2] (setting [5]) was 30.8%.

Take `[N-]=[N+]=NCCCCCCCCCCC(=O)O` [Compound 2, 11-Azidoundecanoic acid]: the “Activity (% of Myristate)” value in test [1] is 100 % of Myristate. In the test on HIV-1 [2] (setting [4]), the inhibition at 1 µg/mL came out at 16.3%. The inhibition at 10 µg/mL with HIV-1 [2] (setting [5]) came to 34.6%.

On to `CCCCCCCCCC(=O)O` [Decanoic acid, reference compound], for which, in the test with HIV-1 [2], the inhibition at 1 µg/mL was 7.7% and the inhibition at 10 µg/mL stood at 11.3%.

As for `[N-]=[N+]=NCCCCCCCCSCCC(=O)O` [Compound 23, 4-(1-Azido-octane-6-thia)propionic acid], the “Activity (% of Myristate)” value in test [1] is listed as 373 % of Myristate. Moreover, in the test with HIV-1 [2] (CEM cells, HIV-1, 7 days), the “ID50 (inhibitory dose that inhibits 50% of the cytopathic effect)” value is given as “Inactive”. For the same compound, in the test with HIV-1 [2], the inhibition at 1 µg/mL was found to be 0% and the inhibition at 10 µg/mL was found to be 0%.

For `[N-]=[N+]=NCCCOCCCCCCCC(=O)O` [Compound 41, 8-(1-Azido-propane-3-oxa)octanoic acid], the “Activity (% of Myristate)” value in test [1] is recorded as 421 % of Myristate. Besides, the IC50 in the test with HIV-1 [2] (CEM cells, HIV-1, 7 days) stood at 5 µg/mL (≈ 20.6 µM). Besides, the inhibition at 1 µg/mL with HIV-1 [2] (setting [4]) is 14%. Also, the inhibition at 10 µg/mL in the test with HIV-1 [2] (setting [5]) was determined as 66%.

For “12-(Tetrazolyl)dodecanoic acid [Compound 46]”, the “Activity (% of Myristate)” value in test [1] is listed as 46 % of Myristate. Moreover, the “ID50 (inhibitory dose that inhibits 50% of the cytopathic effect)” value in the test with HIV-1 [2] (CEM cells, HIV-1, 7 days) amounted to 5.9 µg/mL. In addition, the figures for the “Percent Reduction of CPE” value in the test on HIV-1 [2] (setting [4]) and in the test on HIV-1 [2] (setting [5]) were 12% and 65%, respectively.

Regarding `[N-]=[N+]=NCCCCCCCCCSCC(=O)O` [Compound 19, 2-(1-Azido-nonane-9-thia)acetic acid], in test [1], the “Activity (% of Myristate)” value was 17 % of Myristate. In the test with HIV-1 [2] (CEM cells, HIV-1, 7 days), the IC50 worked out at 9.2 µg/mL (≈ 35.5 µM). Moreover, the inhibition at 1 µg/mL with HIV-1 [2] (setting [4]) is 1%. In the test on HIV-1 [2] (setting [5]), the inhibition at 10 µg/mL was determined as 54%.

As for `[N-]=[N+]=NCCCCCCSCCCCC(=O)O` [Compound 13, 5-(1-Azido-hexane-6-thia)pentanoic acid], in test [1], the “Activity (% of Myristate)” value was 103 % of Myristate. Besides, in the test with HIV-1 [2] (CEM cells, HIV-1, 7 days), the “ID50 (inhibitory dose that inhibits 50% of the cytopathic effect)” value is on record as “Inactive”. Further, in the test on HIV-1 [2] (setting [4]), the inhibition at 1 µg/mL stood at 0%. Besides, the inhibition at 10 µg/mL in the test on HIV-1 [2] (setting [5]) amounted to 14%.

With `Cc1cn([C@H]2C[C@H](N=[N+]=[N-])[C@@H](CO)O2)c(=O)[nH]c1=O` [AZT, Azidothymidine], the IC50 in the test with HIV-1 [2] (CEM cells, HIV-1, 7 days) was under 0.001 µg/mL. The inhibition at 0.5 µg/mL with HIV-1 [3] was 87.8%. In addition, in the test with HIV-1 [3] (0.001 μg/ml, CEM cells, HIV-1, 7 days), the inhibition at 0.001 µg/mL was found to be 58.2%. Also, the inhibition at 0.01 µg/mL in the test with HIV-1 [3] (0.01 μg/ml, CEM cells, HIV-1, 7 days) is 84.8%. Further, in the test with HIV-1 [3] (0.1 μg/ml, CEM cells, HIV-1, 7 days), the inhibition at 0.1 µg/mL was 101%.

For `[N-]=[N+]=NCCCCCCCCC(=O)O` [Compound 3, 9-Azidononanoic acid], the “Activity (% of Myristate)” value in test [1] is 55 % of Myristate.

Turning to `[N-]=[N+]=NCCOCCCCCCCCC(=O)O` [Compound 40, 9-(1-Azido-ethane-2-oxa)nonanoic acid], the “Activity (% of Myristate)” value in test [1] is listed as 280 % of Myristate.
